According to patent US20260240865A1, “HARNESSING IKZF:BETA-CATENIN COMPLEXES IN THE TREATMENT OF LYMPHOCYTE ASSOCIATED DISEASES OR CONDITIONS” (Yale University, priority 2022, published 2026):

T1: Stat5, mouse (mouse, UniProt Q9JIA0 1-793)
T1 sequence: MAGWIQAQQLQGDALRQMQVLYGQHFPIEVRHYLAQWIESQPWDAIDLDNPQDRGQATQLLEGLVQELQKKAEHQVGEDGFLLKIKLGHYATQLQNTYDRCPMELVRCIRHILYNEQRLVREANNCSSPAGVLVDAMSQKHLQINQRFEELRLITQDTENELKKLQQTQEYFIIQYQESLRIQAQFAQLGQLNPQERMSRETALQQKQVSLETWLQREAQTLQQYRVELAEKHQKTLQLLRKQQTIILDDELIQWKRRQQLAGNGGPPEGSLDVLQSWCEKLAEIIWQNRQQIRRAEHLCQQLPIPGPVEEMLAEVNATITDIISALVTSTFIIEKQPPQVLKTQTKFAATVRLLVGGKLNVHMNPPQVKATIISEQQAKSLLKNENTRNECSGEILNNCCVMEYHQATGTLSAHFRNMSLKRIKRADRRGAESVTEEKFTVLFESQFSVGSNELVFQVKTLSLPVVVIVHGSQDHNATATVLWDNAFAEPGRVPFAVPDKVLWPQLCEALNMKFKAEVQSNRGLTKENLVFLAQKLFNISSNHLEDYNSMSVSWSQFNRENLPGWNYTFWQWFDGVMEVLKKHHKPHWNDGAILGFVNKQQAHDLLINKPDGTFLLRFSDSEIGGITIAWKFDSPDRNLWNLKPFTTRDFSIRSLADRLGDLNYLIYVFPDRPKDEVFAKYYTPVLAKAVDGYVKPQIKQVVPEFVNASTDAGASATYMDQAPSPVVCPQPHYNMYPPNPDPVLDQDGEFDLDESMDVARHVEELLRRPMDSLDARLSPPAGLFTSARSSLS

B1: β-catenin (Ctnnb1), mouse (other, UniProt Q02248 2-781, looked up)
chain: ATQADLMELDMAMEPDRKAAVSHWQQQSYLDSGIHSGATTTAPSLSGKGNPEEEDVDTSQVLYEWEQGFSQSFTQEQVADIDGQYAMTRAQRVRAAMFPETLDEGMQIPSTQFDAAHPTNVQRLAEPSQMLKHAVVNLINYQDDAELATRAIPELTKLLNDEDQVVVNKAAVMVHQLSKKEASRHAIMRSPQMVSAIVRTMQNTNDVETARCTAGTLHNLSHHREGLLAIFKSGGIPALVKMLGSPVDSVLFYAITTLHNLLLHQEGAKMAVRLAGGLQKMVALLNKTNVKFLAITTDCLQILAYGNQESKLIILASGGPQALVNIMRTYTYEKLLWTTSRVLKVLSVCSSNKPAIVEAGGMQALGLHLTDPSQRLVQNCLWTLRNLSDAATKQEGMEGLLGTLVQLLGSDDINVVTCAAGILSNLTCNNYKNKMMVCQVGGIEALVRTVLRAGDREDITEPAICALRHLTSRHQEAEMAQNAVRLHYGLPVVVKLLHPPSHWPLIKATVGLIRNLALCPANHAPLREQGAIPRLVQLLVRAHQDTQRRTSMGGTQQQFVEGVRMEEIVEGCTGALHILARDVHNRIVIRGLNTIPLFVQLLYSPIENIQRVAAGVLCELAQDKEAAEAIEAEGATAPLTELLHSRNEGVATYAAAVLFRMSEDKPQDYKKRLSVELTSSLFRTEPMAWNETADLGLDIGAQGEALGYRQDDPSYRSFHSGGYGQDALGMDPMMEHEMGGHHPGADYPVDGLPDLGHAQDLMDGLPPGDSNQLAWFDTDL
notes: Protein from lysates of BCR-ABL1-transformed Ctnnb1^ex3fl/+ murine B-ALL cells, immunoprecipitated with antibody 14/β-catenin; After Cre-ER^T2/4-OHT one allele lacks exon 3 (GSK3β phosphorylation sites), so the stabilised exon-3-deleted form and the wild type are both present

Key:
[1] = tested on: B-lymphoid leukemia and lymphoma cells; experiment: Cell viability assay (Cell Titer Glo 2.0) with GSK3β inhibitors; type: cell-based, human; settings: B-lymphoid vs myeloid and epithelial cells (PDX2, BV173, LAX2 vs THP1, SW620, H82); 3 days
Method: Forty thousand patient-derived pre-B ALL cells or twenty thousand leukemia/lymphoma cell lines or ten thousand colon/lung cancer cells were seed in a volume of 80 μl in complete growth medium on 96-well plate. GSK3β3 inhibitors were added at the indicated concentration in a total volume of 100 μl. After treatment for 3 days, Cell Titer Glo 2.0 assays (Promega) were performed according to the manufacturer's instructions. Relative viability was calculated by measuring the luminescence value and normalizing it to baseline values of untreated cells.
Data are shown as mean±s.d. unless stated. Statistical analysis was performed by GraphPad Prism 7 (GraphPad Software Inc.) using unpaired two-tailed t test or log-rank test as indicated in figure legends. Significance was considered at P<0.05. Kaplan-Meier survival analysis was used to estimate OS with GraphPad Prism 7. The investigators were not blinded to allocation during experiments and outcome assessment. Experiments were repeated to ensure reproducibility of the observations.

[2] = tested on: β-catenin and MYC protein levels in B-ALL cells; experiment: Western blot of β-catenin and MYC after GSK3β inhibitor treatment; type: cell-based, human; settings: for β-catenin accumulation and MYC suppression: B-ALL (PDX2) cells, 16 hours, FIGS. 7A, 7C, 18C
Method: Cells were washed twice with ice-cold PBS and were lysed in CelLytic buffer (Sigma-Aldrich) supplemented with 1% protease inhibitor cocktail (Roche Diagnostics), 1% phosphatase inhibitor cocktail (EMD Millipore) and 1 mM PMSF (CST) on ice. 10-20 μg of cell lysates were separated on precast gels (Bio-Rad) and transferred on nitrocellulose membranes (Bio-Rad). After blocking for an hour in TBS-T with 2% BSA, membranes were probed with the appropriate primary antibodies listed in Table 6. Membranes were incubated with alkaline-phosphatase conjugated secondary antibodies (Invitrogen) and analyzed with Chemi Doc™ MP Imaging System (Bio-Rad). For fractionation experiment Nuclear and Cytoplasmic Extraction Reagent (Thermo Scientific) was used according to manufacturer's instructions.

[3] = cited from earlier work; for Outcome: clinical responses / Outcome: safety: Phase 1 and 2; for safety and tolerability / PK/PD profile in clinical trials: micromolar plasma concentrations (Cmax); for Outcome: MTD: i.v.
[4] = tested on: Human B-ALL xenograft cells (SFO5); experiment: Colony formation assay of B-ALL xenograft cells; type: cell-based; settings: SFO5, lenalidomide 0.5 μM for 2 days
Method: For colony forming assays, 10,000 mouse BCR-ABL1 or NRAS^G12D were grown on MethoCult medium (M3231 or M3630 (with IL-7) respectively, StemCell Technologies) in 3-cm diameter dishes with an extra dish filled with water to prevent evaporation. Colony forming assays with human leukemia/lymphoma cell lines were performed by plating 10,000 cells on MethoCult medium without human cytokines (H4230). For mouse pre-B cells 50.000 cells were grown on MethoCult medium with IL-7 (M3630). For colony forming assays assessing mouse myeloid progenitors, 10,000 cells were grown on MethoCult medium with mouse SCF, IL-3, IL-6, EPO (M3434). For human cord-blood derived colonies, 1000 CD34^+ HSCs were plated on MethoCult medium with recombinant human SCF, IL-3, IL-6, EPO, G-CSF, GM-CSF (H4435). For all colony forming experiments, colonies were imaged and counted using GelCount (Oxford Optronix) and 7-14 days after plating.

[5] = tested on: B-cell lymphoma cell lines; experiment: Drug responses (AUC) to CHIR99021 across B-cell lymphoma cell lines; type: cell-based, human; settings: 84 B-cell lymphoma cell lines; 8q24+ n=31, 8q24- n=53; P=5.2E-07
Excerpt: In some embodiments, the IC50 can be calculated by using the Broad Repurposing Library and the PRISM multiplexed cell-line viability assay. Any assay or technique known in the art can be used for the calculation of the IC50 for the purposed of the present invention. The mutation data for CTNNB1, APC, AXIN1, AXIN2 and GSK3β genes were acquired from https://cancer.sanger.ac.uk/cosmic. The data for RIC staining of β-catenin was obtained from https://www.proteinatlas.org/. The RNA-seq data and mass spectrometry data for β-catenin and IKZF1 in human cancer cell lines were obtained from depmap.org/portal/download/. Data for drug-response of solid tumor cell lines to were acquired from depmap.org/portal/download/. Hallmark Myc-Targets V1 and Hallmark Myc-Targets V2 gene sets were acquired from MSigDB. RNA-seq data was deposited to GEO with the accession number GSE196767 and ChIP-seq data was deposited to GEO with accession number GSE196745. All other data are available from the corresponding author upon reasonable request.

Stat5, mouse = target: T1, Stat5, mouse; experiment: co-IP with anti-β-catenin antibody and Western blot, murine B-ALL cells (FIG. 4B)
Method: Co-immunoprecipitation experiments were performed using Pierce Crosslink Magnetic IP/Co-IP kit according to manufacturer's instructions (Thermo Scientific).

| Molecule | selective cell death / drug response [1] | β-catenin accumulation and MYC suppression [2] | Outcome: clinical responses [3] | safety and tolerability / PK/PD profile in clinical trials [3] | also measured |
| --- | --- | --- | --- | --- | --- |
| O=C1Nc2cc(Br)ccc2/C1=C1/Nc2ccccc2/C1=N\O [6-Bromoindirubin-3′-oxime] | induced cell death at low nanomolar concentrations selectively in B-lymphoid but not myeloid and epithelial cells | induced massive accumulation of β-catenin in parallel with acute suppression of MYC | – | – | – |
| Cn1cc(C2=C(c3coc4ccc(F)cc34)C(=O)NC2=O)c2cc3c(cc21)OCO3 [9-ING-41, Elraglusib] | broad non-specific toxicity across all cell types tested | failure to induce β-catenin accumulation and MYC-suppression | No clinical response | demonstrated safety and tolerability at micromolar plasma concentrations | Outcome: safety [3]: Phase 1 and 2, favorable safety |
| O=c1sn(-c2cccc3ccccc23)c(=O)n1Cc1ccccc1 [Tideglusib] | no significant activity in any cell type | failure to induce β-catenin accumulation and MYC-suppression | No clinical responses | demonstrated safety and tolerability at micromolar plasma concentrations | Outcome: safety [3]: Phase 1 and 2, favorable safety; Outcome: MTD [3]: 120 mg |
| CHIR98014 | induced cell death at low nanomolar concentrations selectively in B-lymphoid but not myeloid and epithelial cells | induced massive accumulation of β-catenin in parallel with acute suppression of MYC | – | – | – |
| Nc1cccc2c1CN(C1CCC(=O)NC1=O)C2=O (stereo not drawn) [lenalidomide] | – | – | – | – | MYC expression under β-catenin accumulation ([2]; SFO5 cells, lenalidomide 0.5 μM with LY2090314 20 nM): relieved β-catenin-induced transcriptional repression of MYC; colony formation under β-catenin accumulation [4]: relieved β-catenin-induced transcriptional repression of MYC and suppression of colony formation |
| N#Cc1ccc2[nH]c(O)c(-c3ccc(CN4CCOCC4)cn3)c2c1 [AZD1080] | – | – | – | demonstrated safety and tolerability at micromolar plasma concentrations | – |
| Cc1c[nH]c(-c2cnc(NCCNc3ccc(C#N)cn3)nc2-c2ccc(Cl)cc2Cl)n1 [CHIR99021, Laduviglusib] | – | induced massive accumulation of β-catenin in parallel with acute suppression of MYC | No clinical responses | demonstrated safety and tolerability at micromolar plasma concentrations | sensitivity of B-cell lymphoma cell lines with MYC-rearrangement (8q24+) vs without [5]: substantially less sensitive; Outcome: MTD [3]: 80 mg |
| B1 | – | – | – | – | binding result (Stat5, mouse): no binding |
